This passage reports Ki results from patent US12617797B2, “Substituted pyrazolo [1,5-a]pyrimidines having multimodal activity against pain” (ESTEVE PHARMACEUTICALS, S.A., priority 2020, dated 2026).

Assay [1] addresses Human α2δ-1 subunit of Cav2.2 calcium channel (Homo sapiens, UniProt P54289). As to the kind of experiment: Human α2δ-1 subunit of Cav2.2 calcium channel assay ([3H]-gabapentin binding). Conditions: binding to the α2δ-1 subunit of voltage-gated calcium channels expressed as Ki; + also covers inhibition between 1% and 50%. The essentials:
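Displacement of 15 nM [3H]-gabapentin from human α2δ-1-enriched membranes (Hepes-KOH 10 mM, pH 7.4; 27 °C, 60 min) read by filter binding and radioactivity counting. Values are single-point % inhibition (1 or 10 μM) or five-point Ki; 10 μM pregabalin sets NSB.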

Assay [2] concerns the target T1, Human σ1 receptor (Homo sapiens, UniProt Q99720).
T1 construct: expressed in transfected cells; host or cells: HEK-293
Briefly: Human σ1 receptor radioligand assay ([3H](+)-pentazocine binding, transfected HEK-293 membranes). Particulars: binding to σ1 receptor expressed as Ki; + also covers inhibition between 1% and 50%; read-out: σ-1 binding. The essentials: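 Ki was derived from five test concentrations, or % inhibition was measured at a single 1 or 10 μM dose, against 5 nM [3H](+)-pentazocine. Incubation was 120 min at 37° C in 50 mM Tris-HCl pH 8 with 7 μg HEK-293 membranes, and 10 μM haloperidol set non-specific binding. Bound radioactivity was counted after filtration.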

T1 sequence (Q99720 whole entry): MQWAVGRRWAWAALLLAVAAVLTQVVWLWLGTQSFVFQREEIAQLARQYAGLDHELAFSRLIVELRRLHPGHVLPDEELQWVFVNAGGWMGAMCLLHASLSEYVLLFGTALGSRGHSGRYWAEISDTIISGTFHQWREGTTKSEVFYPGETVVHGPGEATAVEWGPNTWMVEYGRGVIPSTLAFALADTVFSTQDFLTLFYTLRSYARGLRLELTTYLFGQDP
Sequence of Human α2δ-1 subunit of Cav2.2 calcium channel (P54289 25-1103): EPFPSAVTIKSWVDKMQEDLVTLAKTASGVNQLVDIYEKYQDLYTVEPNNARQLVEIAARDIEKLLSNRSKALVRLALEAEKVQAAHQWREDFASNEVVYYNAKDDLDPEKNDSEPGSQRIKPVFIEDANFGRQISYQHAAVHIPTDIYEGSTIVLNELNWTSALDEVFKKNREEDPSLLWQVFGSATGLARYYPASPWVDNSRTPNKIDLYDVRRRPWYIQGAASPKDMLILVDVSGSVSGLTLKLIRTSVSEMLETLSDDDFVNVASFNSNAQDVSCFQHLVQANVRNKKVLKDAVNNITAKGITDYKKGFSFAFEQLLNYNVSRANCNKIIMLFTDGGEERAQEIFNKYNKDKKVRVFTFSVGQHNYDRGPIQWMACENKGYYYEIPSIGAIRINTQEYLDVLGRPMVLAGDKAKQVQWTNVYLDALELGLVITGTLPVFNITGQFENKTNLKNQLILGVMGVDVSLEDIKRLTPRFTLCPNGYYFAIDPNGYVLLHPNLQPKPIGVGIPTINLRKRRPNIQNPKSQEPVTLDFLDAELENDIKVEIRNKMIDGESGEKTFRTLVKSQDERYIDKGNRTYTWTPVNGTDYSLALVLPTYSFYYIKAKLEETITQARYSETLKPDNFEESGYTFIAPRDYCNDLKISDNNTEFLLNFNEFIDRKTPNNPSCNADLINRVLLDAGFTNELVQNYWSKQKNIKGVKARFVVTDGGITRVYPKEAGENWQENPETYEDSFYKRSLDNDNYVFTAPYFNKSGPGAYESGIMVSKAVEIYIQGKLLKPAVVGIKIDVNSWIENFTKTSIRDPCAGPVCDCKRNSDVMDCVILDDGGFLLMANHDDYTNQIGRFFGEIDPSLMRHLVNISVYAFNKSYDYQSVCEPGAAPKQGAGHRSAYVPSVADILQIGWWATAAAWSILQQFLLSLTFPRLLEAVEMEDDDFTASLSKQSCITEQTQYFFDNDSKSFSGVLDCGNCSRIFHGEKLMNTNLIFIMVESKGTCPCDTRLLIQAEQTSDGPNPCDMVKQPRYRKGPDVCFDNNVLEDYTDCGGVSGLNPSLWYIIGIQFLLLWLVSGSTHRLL

In the case of `Cn1cncc1-c1cc2nccc(C3CCCN(Cc4ccccc4)C3)n2n1` (centres unmarked) [Example 21, 7-(1-Benzylpiperidin-3-yl)-2-(1-methyl-1H-imidazol-5-yl)pyrazolo[1,5-a]pyrimidine], the Ki in assay [1] is 500 to 5000 nM; in assay [2] it was more than 1000 nM.

For the molecule `c1ccc(CN2CCCC(c3ccnc4c(N5CCCC5)cnn34)C2)cc1` (centres unmarked) [Example 88, 7-(1-Benzylpiperidin-3-yl)-3-(pyrrolidin-1-yl)pyrazolo[1,5-a]pyrimidine], the results for the Ki in assay [1] and in assay [2] were more than 5000 nM and 500 to 1000 nM, respectively.

On to `COc1cc(-c2cc3nccc(C4CCCN(Cc5ccccc5)C4)n3n2)ccn1` (centres unmarked) [Example 32, 7-(1-Benzylpiperidin-3-yl)-2-(2-methoxypyridin-4-yl)pyrazolo[1,5-a]pyrimidine], for which the figures for the Ki in assay [1] and in assay [2] were more than 5000 nM and more than 1000 nM, respectively.

As to `Cc1nn2c([C@H]3CCCN(Cc4ccc(Cl)cc4)C3)ccnc2c1CN[C@H](C)c1ccccc1` [Example 196, (R)—N-((7-((S)-1-(4-chlorobenzyl)piperidin-3-yl)-2-methylpyrazolo[1,5-a]pyrimidin-3-yl)methyl)-1-phenylethan-1-amine], the results for the Ki in assay [1] and in assay [2] were more than 5000 nM and less than 500 nM, respectively.

Regarding `Cc1cc(-c2c(C)nn3c(C4CCCN(Cc5ccccc5)C4)ccnc23)ccn1` (centres unmarked) [Example 51, 7-(1-Benzylpiperidin-3-yl)-2-methyl-3-(2-methylpyridin-4-yl)pyrazolo[1,5-a]pyrimidine], the Ki lay in the range of 500 to 5000 nM in assay [1] and 500 to 1000 nM in assay [2].

Regarding `Cc1nn2c(C3CCCN(Cc4ccccc4)C3)ccnc2c1N(C)C` (centres unmarked) [Example 142, 7-(1-Benzylpiperidin-3-yl)-N,N,2-trimethylpyrazolo[1,5-a]pyrimidin-3-amine], the Ki in assay [1] was more than 5000 nM; in assay [2], more than 1000 nM.

Take `c1ccc(CN2CCCC(c3ccnc4cc(-c5cncnc5)nn34)C2)cc1` (centres unmarked) [Example 23, 7-(1-Benzylpiperidin-3-yl)-2-(pyrimidin-5-yl)pyrazolo[1,5-a]pyrimidine]: the Ki in assay [1] was 500 to 5000 nM; in assay [2], more than 1000 nM.

On to `Cc1nn2c([C@H]3CCCN(Cc4ccccc4)C3)ccnc2c1CNC[C@@H]1CCC(=O)NC1` [Example 246, (S)-5-((((7-((S)-1-Benzylpiperidin-3-yl)-2-methylpyrazolo[1,5-a]pyrimidin-3-yl)methyl)amino)methyl)piperidin-2-one], for which the values for the Ki in assay [1] and in assay [2] were 500 to 5000 nM and more than 1000 nM, respectively.

As to `CN(CCO)c1cc2nccc(C3CCCN(Cc4ccccc4)C3)n2n1` (centres unmarked) [Example 79, 2-((7-(1-Benzylpiperidin-3-yl)pyrazolo[1,5-a]pyrimidin-2-yl)(methyl)amino)ethanol], the values for the Ki in assay [1] and in assay [2] were more than 5000 nM and more than 1000 nM, respectively.

As for `CCCN1CCCC(c2ccnc3c(-c4ccncc4)c(C)nn23)C1` (centres unmarked) [Example 70, 2-Methyl-7-(1-propylpiperidin-3-yl)-3-(pyridin-4-yl)pyrazolo[1,5-a]pyrimidine], the Ki is more than 5000 nM in assay [1] and more than 1000 nM in assay [2].

As for `Cc1nn2c(C3CCCN(Cc4ccccc4)C3)ccnc2c1CNCCc1ccccc1` (centres unmarked) [Example 97, N-((7-(1-Benzylpiperidin-3-yl)-2-methylpyrazolo[1,5-a]pyrimidin-3-yl)methyl)-2-phenylethanamine], the Ki in assay [1] was 500 to 5000 nM; in assay [2] it was less than 500 nM.

`Cc1nn2c(C3CCCN(Cc4ccc(Cl)cc4)C3)ccnc2c1N(C)C` (centres unmarked) [Example 141, 7-(1-(4-Chlorobenzyl)piperidin-3-yl)-N,N,2-trimethylpyrazolo[1,5-a]pyrimidin-3-amine]: the Ki was more than 5000 nM in assay [1] and less than 500 nM in assay [2].

`Cc1nn2c(C3CCCN(Cc4ccc(Cl)cc4)C3)ccnc2c1-c1ccnc(OCC2CC2)c1` (centres unmarked) [Example 137, 7-(1-(4-Chlorobenzyl)piperidin-3-yl)-3-(2-(cyclopropylmethoxy)pyridin-4-yl)-2-methylpyrazolo[1,5-a]pyrimidine]: the Ki is more than 5000 nM in assay [1] and more than 1000 nM in assay [2].
